Where a SMILES comes first, the peptide text is derived from it. [ ]: non-standard residue; d: D form. Phe(4-CONH2) = NC(=O)c1ccc(C[C@H](N)C(=O)O)cc1
Experiments:
[1] = molecular target: T1, cloned human μ opioid receptor (Homo sapiens, UniProt P35372); test: [3H]diprenorphine receptor binding, μ opioid receptor; conditions: δ over μ
T1 construct: expressed in transfected cells; host or cells: CHO cells
Experimental: (§1) The potencies of the compounds of the Examples were determined by testing the ability of a range of concentrations of each compound to inhibit the binding of the non-selective opioid antagonist, [^3H]diprenorphine, to the cloned human μ, κ, and δ opioid receptors, expressed in separate cell lines. IC50 values were obtained by nonlinear analysis of the data using GraphPad Prism version 3.00 for Windows (GraphPad Software, San Diego). Ki values were obtained by Cheng-Prusoff corrections of IC50 values.
(§2) The receptor binding method (DeHaven and DeHaven-Hudkins, 1998) was a modification of the method of Raynor et al. (1994). […] The filters were rinsed 4 times with 1 mL of cold 50 mM Tris HCl, pH 7.8 and radioactivity remaining on the filters determined by scintillation spectroscopy. Nonspecific binding was determined by the minimum values of the titration curves and was confirmed by separate assay wells containing 10 μM naloxone. Ki values were determined by Cheng-Prusoff corrections of IC50 values derived from nonlinear regression fits of 12 point titration curves using GraphPad Prism® version 3.00 for Windows (GraphPad Software, San Diego, Calif.).
(§3) To determine the equilibrium dissociation constant for the inhibitors (Ki), radioligand bound (cpm) in the presence of various concentrations of test compounds was measured. […]

[2] = molecular target: T2, cloned human δ opioid receptor (Homo sapiens, UniProt P41143); test: [3H]diprenorphine receptor binding, δ opioid receptor
T2 construct: expressed in transfected cells; host or cells: CHO cells
T2 sequence (P41143 whole entry): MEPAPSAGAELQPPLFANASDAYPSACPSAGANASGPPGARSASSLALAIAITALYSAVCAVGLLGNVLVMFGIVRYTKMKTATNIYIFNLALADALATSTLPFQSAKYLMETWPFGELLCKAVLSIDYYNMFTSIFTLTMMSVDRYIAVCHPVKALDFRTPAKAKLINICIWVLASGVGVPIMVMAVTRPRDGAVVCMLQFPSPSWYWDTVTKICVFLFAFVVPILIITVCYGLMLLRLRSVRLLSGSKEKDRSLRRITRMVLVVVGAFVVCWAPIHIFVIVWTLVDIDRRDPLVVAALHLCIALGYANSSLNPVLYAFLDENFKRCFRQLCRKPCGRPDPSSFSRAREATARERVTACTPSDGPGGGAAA
Experimental: as §1, §2, §3

[3] = molecular target: T2, cloned human δ opioid receptor; test: Receptor-mediated [35S]GTPγS binding, δ opioid receptor; format: biochemical
Experimental: The potency and efficacy of compounds at each of the receptors are assessed by modifications of the methods of Selley et al., 1997 and Traynor and Nahorski, 1995 using receptor-mediated [^35S]GTPγS binding in the same membrane preparations used to measure receptor binding. Assays are carried out in 96-well FlashPlates® (Perkin Elmer Life Sciences, Inc, Boston, Mass.). Membranes prepared from CHO cells expressing the appropriate receptor (50-100 μg of protein) are added to assay mixtures containing agonist with or without antagonists, […] [^35S]GTPγS (approx. 100,000 dpm), 3.0 μM GDP, 75 mM NaCl, 15 mM MgCl2, 1.0 mM ethylene glycol-bis(β-aminoethyl ether)-N,N,N′,N′-tetracetic acid, 1.1 mM dithiothreitol, 10 μg/mL leupeptin, 10 μg/mL pepstatin A, 200 μg/mL bacitracin, and 0.5 μg/mL aprotinin in 50 mM Tris-HCl buffer, pH 7.8. After incubation at room temperature for one hour, the plates are sealed, centrifuged at 800×g in a swinging bucket rotor for 5 minutes and bound radioactivity determined with a TopCount microplate scintillation counter (Packard Instrument Co., Meriden, Conn.).
EC50 values for agonists are determined from nonlinear regression fits of 8- or 12-point titration curves to the 4-parameter equation for a sigmoidal dose-response with a slope factor of 1.0 using GraphPad Prism version 3.00 for Windows (GraphPad Software, San Diego, Calif.).

[4] = molecular target: T3, cloned human κ opioid receptor (Homo sapiens, UniProt P41145); test: [3H]diprenorphine receptor binding, κ opioid receptor; conditions: δ over κ
T3 construct: expressed in transfected cells; host or cells: CHO cells
T3 sequence (P41145 whole entry): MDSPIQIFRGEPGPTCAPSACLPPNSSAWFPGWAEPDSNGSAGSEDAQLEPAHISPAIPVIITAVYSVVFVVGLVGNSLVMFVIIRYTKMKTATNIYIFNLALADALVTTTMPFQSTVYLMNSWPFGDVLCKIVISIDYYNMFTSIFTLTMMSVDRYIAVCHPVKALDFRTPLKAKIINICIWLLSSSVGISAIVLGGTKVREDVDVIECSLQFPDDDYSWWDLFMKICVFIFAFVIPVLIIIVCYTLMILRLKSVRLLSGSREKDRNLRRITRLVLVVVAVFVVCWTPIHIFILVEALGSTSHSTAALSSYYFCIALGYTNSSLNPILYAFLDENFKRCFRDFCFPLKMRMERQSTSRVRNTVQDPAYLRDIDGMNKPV
Experimental: as §1, §2, §3

T1 sequence (P35372 whole entry): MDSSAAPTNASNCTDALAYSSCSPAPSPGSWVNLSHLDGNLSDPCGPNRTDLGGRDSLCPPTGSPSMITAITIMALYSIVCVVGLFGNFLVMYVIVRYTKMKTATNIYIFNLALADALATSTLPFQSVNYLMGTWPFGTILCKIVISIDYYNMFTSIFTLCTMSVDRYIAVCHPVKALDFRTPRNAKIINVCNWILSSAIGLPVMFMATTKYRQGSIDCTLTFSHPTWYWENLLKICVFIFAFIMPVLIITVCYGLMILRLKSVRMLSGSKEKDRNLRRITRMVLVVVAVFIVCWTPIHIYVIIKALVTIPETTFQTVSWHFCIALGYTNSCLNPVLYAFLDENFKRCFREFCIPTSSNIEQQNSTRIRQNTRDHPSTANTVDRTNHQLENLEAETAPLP

**Q.** Which “selectivity versus the μ opioid receptor” value [1] does the source give for `CC(C)C[C@H](NC(=O)[C@H](Cc1ccccc1)NC(=O)CNC(=O)CNC(=O)[C@@H](N)Cc1ccc(C(N)=O)cc1)C(N)=O` [Example 1, H-Cpa-Gly-Gly-Phe-Leu-NH2] (H-[Phe(4-CONH2)]GGFL-NH2) here?
**A.** greater than 10 fold

**Q.** And the Ki [2]?
**A.** 7 nM

**Q.** What about the EC50 [3] of the same molecule?
**A.** 74 nM

**Q.** And the “selectivity versus the κ opioid receptor” value [4]?
**A.** greater than 10 fold

Reference: patent US20050113295A1, “Carboxamide and amino derivatives and methods of their use” (priority 2003, published 2005)
